Where a name gives a salt, the structure may show the parent alone.
What was measured:
[1] = system: dopamine (DA) neurons in substantia nigra pars compacta; conditions: MPTP model, daily injections; cited from earlier work
[2] = Cell cytotoxicity test: HT22 cells co-treated with 5 mM glutamate and compound, MTT readout; assay type: cell-based, mouse; conditions: mouse, HT22 cells (mouse hippocampal neuron)
Description: (§1) HT22 cells (mouse hippocampal neuron, Salk Institute and KRIBB) were placed in a 96-well plate 3×10^3 cells/well for 16 h before treatment. Five millimolar glutamate and the inventive compounds were co-treated and incubated for 24 h in growth media (DMEM with 10% FBS and 1% penicillin streptomycin). MTT (3-(4,5-dimethylthazol-2-yl)-2,5-diphenyltetrazolium bromide, Sigma®) was treated for 4 h and detected with a plate reader at a wavelength=450 nm [Da-Qing, et. al., Anti-oxidant and anti-inflammatory activities of macelignan in murine hippocampal cell line and primary culture of rat microglia cells, BBRC, 2005, 331, 1264-1269].
(§2) The EC50 values were statistically analyzed using Prism® (GraphPad Software Inc., San Diego, Calif.). The results of the cell cytotoxicity test are summarized in Table 1 (EC50: neuroprotective effect against glutamate toxicity, and CC50: cytotoxicity of compound).

[3] = system: HT22 cells (mouse hippocampal neuron); assay: as above; assay type: cell-based; conditions: Mus musculus, HT-22, five millimolar glutamate co-treated, 24 h, read-out: EC50: neuroprotective effect against glutamate toxicity
Description: as §1, §2

| Structure (SMILES) | DA levels in striatum [1] | DA neurons in substantia nigra pars compacta [1] | CC50 at 24 h [2] [µM] | EC50 [3] [µM] |
| --- | --- | --- | --- | --- |
| Oc1ccc2c(c1)[C@@]13CCCC[C@H]1[C@@H](C2)NCC3 [(+)-3-HM, (+)-3-hydroxymorphinan] | restored | protected |  |  |
| Oc1cc2c(c3c1OCCN3)C[C@@H]1NCC[C@]23CCCC[C@H]13 [Example 1, (6S,6aS,10aS)-2,3,4,5,6,6a,7,8,9,10-Decahydro-6,10a-(epiminoethano)phenanthro[2,1-b][1,4]oxazin-12-ol TFA salt] |  |  | > 100 | 26.9 |
| Oc1cc2c(c3c1OCCCN3)C[C@@H]1NCC[C@]23CCCC[C@H]13 [Example 2, (7S,7aS,11aS)-3,4,5,6,7,7a,8,9,10,11-Decahydro-2H-7,11a-(epiminoethano)phenanthro[2,1-b][1,4]oxazepin-13-ol TFA salt] |  |  | > 100 | 27.7 |
| CC(=O)N1CCOc2c(O)cc3c(c21)C[C@@H]1NCC[C@]32CCCC[C@H]12 [Example 3, 1-((6S,6aS,10aS)-12-Hydroxy-2,3,6,6a,7,8,9,10-octahydro-6,10a-(epiminoethano)phenanthro[2,1-b][1,4]oxazin-4(5H)-yl)ethanone TFA salt] |  |  | > 100 | 8.5 |
| CN1CCOc2c(O)cc3c(c21)C[C@@H]1NCC[C@]32CCCC[C@H]12 [Example 4, (6S,6aS,10aS)-4-Methyl-2,3,4,5,6,6a,7,8,9,10-decahydro-6,10a-(epiminoethano)phenanthro[2,1-b][1,4]oxazin-12-ol TFA salt] |  |  | > 100 | 9.6 |
| Oc1cc2c(c3c1OCCO3)C[C@@H]1NCC[C@]23CCCC[C@H]13 [Example 5, (6S,6aS,10aS)-3,5,6,6a,7,8,9,10-Octahydro-2H-6,10a-(epiminoethano)phenanthro[1,2-b][1,4]dioxin-12-ol TFA salt] |  |  | > 100 | 4.97 |
| CC1COc2c3c(cc(O)c2N1)[C@]12CCCC[C@@H]1[C@H](C3)NCC2 (stereo partly drawn) [Example 6, (6S,6aS,10aS)-2-Methyl-1,2,3,5,6,6a,7,8,9,10-decahydro-6,10a-(epiminoethano)phenanthro[1,2-b][1,4]oxazin-12-ol TFA salt] |  |  | > 100 | 0.314 |
| Oc1cc2c(c3c1NCCO3)C[C@@H]1NCC[C@]23CCCC[C@H]13 [Example 7, (6S,6aS,10aS)-1,2,3,5,6,6a,7,8,9,10-Decahydro-6,10a-(epiminoethano)phenanthro[1,2-b][1,4]oxazin-12-ol TFA salt] |  |  | 13.5 | 0.65 |
| Oc1cc2c(c3c1NC(c1ccccc1)CO3)C[C@@H]1NCC[C@]23CCCC[C@H]13 (stereo partly drawn) [Example 8, (6S,6aS,10aS)-2-Phenyl-1,2,3,5,6,6a,7,8,9,10-decahydro-6,10a-(epiminoethano)phenanthro[1,2-b][1,4]oxazin-12-ol TFA salt] |  |  | 8.1 | 0.457 |
| Oc1cc2c(c3nccnc13)C[C@@H]1NCC[C@]23CCCC[C@H]13 [Example 9, (6S,6aS,10aS)-6,6a,7,8,9,10-Hexahydro-5H-6,10a-(epiminoethano)naphtho[2,1-f]quinoxalin-12-ol TFA salt] |  |  | 44.8 | 16.3 |
| Oc1cc2c(c3nc4ccccc4nc13)C[C@@H]1NCC[C@]23CCCC[C@H]13 [Example 10, (4aS,14S,14aS)-2,3,4,13,14,14a-Hexahydro-1H-14,4a-(epiminoethano)naphtho[2,1-a]phenazin-6-ol TFA salt] |  |  | 10.7 | 0.354 |
| Oc1cccc2c1[nH]c1c(O)cc3c(c12)C[C@@H]1NCC[C@]32CCCC[C@H]12 [Example 11, (4aS,13S,13aS)-1,2,3,4,7,12,13,13a-Octahydro-13,4a-(epiminoethano)naphtho[1,2-c]carbazole-6,8-diol TFA salt] |  |  | 44 | 0.303 |
| Oc1cc2c(c3c1[nH]c1ccccc13)C[C@@H]1NCC[C@]23CCCC[C@H]13 [Example 12, (4aS,13S,13aS)-1,2,3,4,7,12,13,13a-Octahydro-13,4a-(epiminoethano)naphtho[1,2-c]carbazol-6-ol TFA salt] |  |  | 49.8 | 0.71 |
| Oc1ccc2[nH]c3c(O)cc4c(c3c2c1)C[C@@H]1NCC[C@]42CCCC[C@H]12 [Example 13, (4aS,13S,13aS)-1,2,3,4,7,12,13,13a-Octahydro-13,4a-(epiminoethano)naphtho[1,2-c]carbazole-6,10-diol TFA salt] |  |  | > 100 | 1.11 |
| Cc1ccc2[nH]c3c(O)cc4c(c3c2c1)C[C@@H]1NCC[C@]42CCCC[C@H]12 [Example 14, (4aS,13S,13aS)-10-Methyl-1,2,3,4,7,12,13,13a-octahydro-13,4a-(epiminoethano)naphtho[1,2-c]carbazol-6-ol TFA salt] |  |  | 5.7 | 0.908 |

Source: US20130217672A1, “(+)-3-HYDROXYMORPHINAN-BASED POLYCYCLE DERIVATIVES” (GREEN CROSS CORPORATION, priority 2010, published 2013)
